Patent US10590129B2 (Incozen Therapeutics Pvt. Ltd., priority 2010, dated 2020)
Counter-ions that a name gives are not always drawn.

Assays:
MKN-45 cells = experiment: Inhibition of MKN-45 proliferation (MTT); assay type: cell-based, human
Protocol: Inhibition of MKN-45 Proliferation:
Cell proliferation assays were carried out using the high Met expressing human gastric adenocarcinoma cell line, MKN-45, according to the following schedule:
Day 1: Cells were plated in 96-well plates in complete growth medium.
Day 2: Compounds at desired concentrations were added.
Day 5: Cell viability was determined using the 3-[4,5-dimethylthiazol-2-yl]-2,5-diphenyltetrazolium bromide (MTT) dye reduction test.

[1] = Homo sapiens, MKN-45, MKN-45 proliferation, 1 μM
[2] = Homo sapiens, MKN-45, MKN-45 proliferation, 0.1 μM

SMILES	melting point [°C]	inhibition at 1 µM (MKN-45 cells; [1]) [%]	inhibition at 0.1 µM (MKN-45 cells; [2]) [%]	further results
CN(C)CCCNC(=O)c1ccc(-c2ccc3nnn(Cc4ccc5ncccc5c4)c3n2)cc1F (as salt: hydrochloride) [Ex 121, N-(3-(dimethylamino)propyl)-2-fluoro-4-(3-(quinolin-6-ylmethyl)-3H-[1,2,3]triazolo[4,5-b]pyridin-5-yl)benzamide dihydrochloride]	137 to 140	–	–	–
COc1ccc(-c2ccc3nnn(Cc4ccc5ncccc5c4)c3n2)cc1 [Ex 1, 6-((5-(4-Methoxyphenyl)-3H-[1,2,3]triazolo[4,5-b]pyridin-3-yl)methyl)quinoline]	144 to 146	25 to 50	–	–
OCc1cccc(-c2ccc3nnn(Cc4ccc5ncccc5c4)c3n2)c1 [Ex 4, (3-(3-(quinolin-6-ylmethyl)-3H-[1,2,3]triazolo[4,5-b]pyridin-5-yl)phenyl)methanol]	191 to 193	–	–	GI50 (MKN-45 cells; Homo sapiens, MKN-45, MKN-45 proliferation): 150 to 500 nM
OCc1ccc(-c2ccc3nnn(Cc4ccc(F)cc4)c3n2)cc1 [Ex 11, (4-(3-(4-Fluorobenzyl)-3H-[1,2,3]triazolo[4,5-b]pyridin-5-yl)phenyl)methanol]	210 to 213	–	–	–
O=C(O)c1ccc(-c2ccc3nnn(Cc4c(F)ccc(F)c4Cl)c3n2)cc1F [Ex 18, 4-(3-(2-Chloro-3,6-difluorobenzyl)-3H-[1,2,3]triazolo[4,5-b]pyridin-5-yl)-2-fluorobenzoic acid]	211 to 213	< 25	–	–
CNC(=O)c1ccc(-c2ccc3nnn(Cc4c(F)ccc(F)c4Cl)c3n2)cc1F [Ex 19, 4-(3-(2-Chloro-3,6-difluorobenzyl)-3H-[1,2,3]triazolo[4,5-b]pyridin-5-yl)-2-fluoro-N-methylbenzamide]	213 to 215	< 25	–	–
FC(F)(F)Oc1cccc(-c2ccc3nnn(Cc4ccc5ncccc5c4)c3n2)c1 [Ex 23, 6-((5-(3-(trifluoromethoxy)phenyl)-3H-[1,2,3]triazolo[4,5-b]pyridin-3-yl)methyl)quinoline]	140 to 142	< 25	–	–
Oc1cccc(-c2ccc3nnn(Cc4ccc5ncccc5c4)c3n2)c1 [Ex 24, 3-(3-(quinolin-6-ylmethyl)-3H-[1,2,3]triazolo[4,5-b]pyridin-5-yl)phenol]	255 to 257	< 25	–	–
FC(F)Oc1cccc(-c2ccc3nnn(Cc4ccc5ncccc5c4)c3n2)c1 [Ex 25, 6-((5-(3-(difluoromethoxy)phenyl)-3H-[1,2,3]triazolo[4,5-b]pyridin-3-yl)methyl) quinoline]	122 to 125	< 25	–	–
O=C(NC1CCCCC1)c1ccc(-c2ccc3nnn(Cc4ccc5ncccc5c4)c3n2)cc1F [Ex 45, N-cyclohexyl-2-fluoro-4-(3-(quinolin-6-ylmethyl)-3H-[1,2,3]triazolo[4,5-b]pyridin-5-yl)benzamide]	172 to 175	–	–	–
O=C(Nc1ccncc1)c1ccc(-c2ccc3nnn(Cc4ccc5ncccc5c4)c3n2)cc1F [Ex 47, 2-Fluoro-N-(pyridin-4-yl)-4-(3-(quinolin-6-ylmethyl)-3H-[1,2,3]triazolo[4,5-b]pyridin-5-yl)benzamide]	217 to 219	50 to 75	< 25	–
O=C(NCc1ccccc1)c1ccc(-c2ccc3nnn(Cc4ccc5ncccc5c4)c3n2)cc1F [Ex 48, N-Benzyl-2-fluoro-4-(3-(quinolin-6-ylmethyl)-3H-[1,2,3]triazolo[4,5-b]pyridin-5-yl)benzamide]	163 to 165	75 to 100	< 25	–
CN(C)C(=O)c1ccc(-c2ccc3nnn(Cc4ccc5ncccc5c4)c3n2)cc1F [Ex 49, 2-Fluoro-N,N-dimethyl-4-(3-(quinolin-6-ylmethyl)-3H-[1,2,3]triazolo[4,5-b]pyridin-5-yl)benzamide]	163 to 165	25 to 50	< 25	–
O=C(O)CNC(=O)c1ccc(-c2ccc3nnn(Cc4ccc5ncccc5c4)c3n2)cc1F [Ex 51, 2-(2-Fluoro-4-(3-(quinolin-6-ylmethyl)-3H-[1,2,3]triazolo[4,5-b]pyridin-5-yl)benzamido)acetic acid]	252 to 254	< 25	< 25	–
Fc1cccc(-c2ccc3nnn(Cc4ccc5ncccc5c4)c3n2)c1 [Ex 56, 6-((5-(3-Fluorophenyl)-3H-[1,2,3]triazolo[4,5-b]pyridin-3-yl)methyl)quinoline]	145 to 147	< 25	< 25	–
CON(C)C(=O)c1ccc(-c2ccc3nnn(Cc4ccc5ncccc5c4)c3n2)cc1F.Cl [Ex 59, 2-Fluoro-N-methoxy-N-methyl-4-(3-(quinolin-6-ylmethyl)-3H-[1,2,3]triazolo[4,5-b]pyridin-5-yl)benzamide hydrochloride]	201 to 202	50 to 75	< 25	–

SMILES	melting point [°C]	inhibition at 1 µM (MKN-45 cells; [1]) [%]	inhibition at 0.1 µM (MKN-45 cells; [2]) [%]	further results
CC(C)(C)NC(=O)c1ccc(-c2ccc3nnn(Cc4ccc5ncccc5c4)c3n2)cc1F [Ex 60, N-tert-Butyl-2-fluoro-4-(3-(quinolin-6-ylmethyl)-3H-[1,2,3]triazolo[4,5-b]pyridin-5-yl) benzamide]	210 to 212	< 25	< 25	–
C=CCNC(=O)c1ccc(-c2ccc3nnn(Cc4ccc5ncccc5c4)c3n2)cc1F [Ex 61, N-Allyl-2-fluoro-4-(3-(quinolin-6-ylmethyl)-3H-[1,2,3]triazolo[4,5-b]pyridin-5-yl) benzamide]	162 to 164	75 to 100	75 to 100	–
CONC(=O)c1ccc(-c2ccc3nnn(Cc4ccc5ncccc5c4)c3n2)cc1F [Ex 62, 2-Fluoro-N-methoxy-4-(3-(quinolin-6-ylmethyl)-3H-[1,2,3]triazolo[4,5-b]pyridin-5-yl)benzamide]	197 to 199	–	–	Inhibition (% Inhibition of MKN-45 proliferation) (MKN-45 cells; MKN-45 proliferation, 0.1 μM): A (A = ≥75 to 100%); % inhibition @ 1 uM (MKN-45 cells; MKN-45 proliferation, 1 μM): A (A = ≥75 to 100%)
CC(=O)Nc1ccc(-c2ccc3nnn(Cc4ccc5ncccc5c4)c3n2)cc1 [Ex 63, N-(4-(3-(quinolin-6-ylmethyl)-3H-[1,2,3]triazolo[4,5-b]pyridin-5-yl)phenyl)acetamide]	220 to 223	50 to 75	< 25	–
Nc1ccc(-c2ccc3nnn(Cc4ccc5ncccc5c4)c3n2)cc1 [Ex 64, 4-(3-(quinolin-6-ylmethyl)-3H-[1,2,3]triazolo[4,5-b]pyridin-5-yl)aniline]	190 to 193	25 to 50	–	–
COc1ccc(-c2ccc3nnn(Cc4ccc5ncccc5c4)c3n2)cc1OC [Ex 65, 6-((5-(3,4-Dimethoxyphenyl)-3H-[1,2,3]triazolo[4,5-b]pyridin-3-yl)methyl)quinoline]	149 to 152	< 25	< 25	–
COc1ccc(-c2ccc3nnn(Cc4ccc5ncccc5c4)c3n2)cc1F [Ex 66, 6-((5-(3-Fluoro-4-methoxyphenyl)-3H-[1,2,3]triazolo[4,5-b]pyridin-3-yl)methyl)quinoline]	187 to 190	25 to 50	< 25	–
NCCCNC(=O)c1ccc(-c2ccc3nnn(Cc4ccc5ncccc5c4)c3n2)cc1F [Ex 112, N-(3-Aminopropyl)-2-fluoro-4-(3-(quinolin-6-ylmethyl)-3H-[1,2,3]triazolo[4,5-b]pyridin-5-yl)benzamide]	292 to 294	–	–	–
O=C(NC1CC1)c1ccc(-c2ccc3nnn(Cc4ccc5ncccc5c4)c3n2)cc1Cl [Ex 113, 2-Chloro-N-cyclopropyl-4-(3-(quinolin-6-ylmethyl)-3H-[1,2,3]triazolo[4,5-b]pyridin-5-yl)benzamide]	197 to 199	–	–	–
CCCn1cc(-c2ccc3nnn(Cc4ccc5ncccc5c4)c3n2)cn1 [Ex 153, 6-((5-(1-Propyl-1H-pyrazol-4-yl)-3H-[1,2,3]triazolo[4,5-b]pyridin-3-yl)methyl)quinoline]	128 to 130	–	–	–
O=C(O)Cn1cc(-c2ccc3nnn(Cc4ccc5ncccc5c4)c3n2)cn1 [Ex 155, 2-(4-(3-(Quinolin-6-ylmethyl)-3H-[1,2,3]triazolo[4,5-b]pyridin-5-yl)-1H-pyrazol-1-yl)acetic acid]	> 270	–	–	–
O[C@@H]1CCN(c2ccc3nnn(Cc4ccc5ncccc5c4)c3n2)C1 [Ex 158, (R)-1-(3-(Quinolin-6-ylmethyl)-3H-[1,2,3]triazolo[4,5-b]pyridin-5-yl)pyrrolidin-3-ol]	167 to 169	–	–	–
OCCn1cc(-c2ccc3nnn(Cc4ccc(F)cc4)c3n2)cn1 [Ex 161, 2-(4-(3-(4-Fluorobenzyl)-3H-[1,2,3]triazolo[4,5-b]pyridin-5-yl)-1H-pyrazol-1-yl)ethanol]	204 to 206	–	–	–
OCCn1cc(-c2ccc3nnn(Cc4c(F)ccc(F)c4Cl)c3n2)cn1 [Ex 165, 2-(4-(3-(2-Chloro-3,6-difluorobenzyl)-3H-[1,2,3]triazolo[4,5-b]pyridin-5-yl)-1H-pyrazol-1-yl)ethanol]	143 to 145	–	–	–
NC(=O)c1ccc(-c2ccc3nnn(Cc4ccc5c(ccc[n+]5[O-])c4)c3n2)cc1Cl [Ex 224, 6-((5-(4-carbamoyl-3-chlorophenyl)-3H-[1,2,3]triazolo[4,5-b]pyridin-3-yl)methyl)quinoline 1-oxide]	–	–	25 to 50	–
CCNC(=O)c1ccc(-c2ccc3nnn(Cc4ccc5ncccc5c4)c3n2)cc1Cl [Ex 225, 2-chloro-N-ethyl-4-(3-(quinolin-6-ylmethyl)-3H-[1,2,3]triazolo[4,5-b]pyridin-5-yl)benzamide hydrochloride]	–	50 to 75	75 to 100	–
